In patent US20250255891A1, “PHARMACEUTICAL COMPOSITION INJECTABLE INTO URINARY TRACT ORGAN CAVITY FOR PREVENTION OR TREATMENT OF UROTHELIAL CANCER” (NATIONAL UNIVERSITY CORPORATION KAGAWA UNIVERSITY, priority 2019, published 2025):

Experiments:
RT112 = test: Cell survival assay (MTT assay), urothelial cancer cell line RT112; assay type: cell-based, human
Method: (§1) Three human urothelial cancer cell lines (RT112, 253J, and J82) were used to analyze the antitumor effect of rare sugars. Ten rare sugars of L-allulose, D-allulose, D-allose, L-fructose, D-mannose, L-sorbose, D-tagatose, D-galactose, D-sorbose, and L-tagatose were used, and D-glucose and D-fructose were used as monosaccharides other than the rare sugars. A minimum essential medium (MEM) containing D-glucose at 1,000 mg/l was used as the culture medium, and the antitumor effect of a rare sugar was evaluated in a prepared MEM containing a monosaccharide or a rare sugar at 10 mM, 25 mM, or 50 mM [in the drawings, indicated by (10), (25), or (50)]. An MEM containing no sugar was used for control. With the MEM, cell suspensions each at 5.0×10^4 cells/ml were prepared. Each suspension was distributed in a 96-well plate at 0.1 ml/well and then was incubated for 24 hours. The culture solution was then removed, next a culture solution containing a monosaccharide or a rare sugar at 10 mM, 25 mM, or 50 mM in the MEM was added at 0.1 ml/well, and the whole was incubated for 24 hours (#1 to #13). An MTT assay is a test method for determining survival and uses a color reaction of an insoluble formazan pigment (blue) formed by reduction of MTT as a tetrazolium salt. […] The coloration is measured with a microplate reader to determine the cell survival rate.

253J = test: Cell survival assay (MTT assay), urothelial cancer cell line 253J; assay type: cell-based, human
Method: as §1

J82 = test: Cell survival assay (MTT assay), urothelial cancer cell line J82; assay type: cell-based, human
Method: as §1

[1] = Basic safety tests (mutagenicity, biodegradability, acute oral toxicity, primary skin irritation, primary eye irritation); details: tests ordered to a designated laboratory
Text: The safety of D-allose required for use as a pharmaceutical component is probably sufficient because the rare sugar is a monosaccharide present even in a trace amount in nature. Mutagenicity test, biodegradability test, and three acute toxicity tests (acute oral toxicity test, primary skin irritation test, and primary eye irritation test) are established as the most basic safety tests.

[2] = compared with 11 other monosaccharides/rare sugars at 10-50 mM

Structure (SMILES): O=C[C@H](O)[C@H](O)[C@H](O)[C@H](O)CO [D-allose]
- survival rate as compared with the control (RT112; 10 mM, 25 mM and 50 mM in MEM, 24 hours, p<0.05, FIG. 1): significantly reduced the survival rate
- antitumor effect relative to the other analyzed sugars (RT112; [2]): strongest antitumor effect among the analyzed sugars
- survival rate as compared with the control (253J; 10 mM, 25 mM and 50 mM in MEM, 24 hours, p<0.05, FIG. 2): significantly reduced the survival rate
- antitumor effect relative to the other analyzed sugars (253J; [2]): strongest antitumor effect among the analyzed sugars
- survival rate as compared with the control (J82; 10 mM, 25 mM and 50 mM in MEM, 24 hours, p<0.05, FIG. 3): significantly reduced the survival rate
- antitumor effect relative to the other analyzed sugars (J82; [2]): strongest antitumor effect among the analyzed sugars
- result of basic safety tests [1]: sufficient safety
